Where two headings read alike, the source gives them in different places.
How the values were obtained:
[1] = tested on: Cryptosporidium parvum; experiment: qRT-PCR assay of the growth of C. parvum in vitro in HCT-8 host cells (primary and secondary screening, EC50); type: cell-based; conditions: Cryptosporidium parvum, HCT-8; for inhibition at 10 µM: primary screening at 10 uM, read-out: Inhibition (%); for inhibition at 3.3 µM: secondary screening at 3.3 uM, read-out: % Inhibition (3.3 uM)
[2] = tested on: HCT-8 host cells (Hs18S)
[3] = in vitro
[4] = primary screening at 10 uM, treated vs control

| Compound | Hs18S ΔCT ([2]; human, 41 h, 10 μM) | inhibition at 10 µM [1] [%] | Hs18S ΔCT [2, 4] | cytotoxicity at 10 µM [3] [%] | cytotoxicity at 41 h, 10 µM ([3]; human) [%] | Hs18S ΔCT [2] | inhibition at 3.3 µM [1] [%] | cytotoxicity at 41 h, 10 µM [3] [%] |
| --- | --- | --- | --- | --- | --- | --- | --- | --- |
| CC1(C)[C@@H](O)CC[C@]2(C)[C@H]3C(=O)C=C4[C@H]5C[C@@](C)(C(=O)O)CC[C@]5(C)CC[C@@]4(C)[C@]3(C)CC[C@@H]12 | – | -12.7 | -0.01 | -0.5 | – | – | – | – |
| CCOc1cccc(C(=O)c2ccc(O)c(O)c2O)c1 | -0.39 | -37.2 | – | – | -31.4 | – | – | – |
| CC(C)=CCC/C(C)=C/COc1ccc2ccc(=O)oc2c1 | – | 3.93 | 0.02 | 1.2 | – | – | – | – |
| CNc1ccccc1C(=O)O | – | -14.8 | – | 13 | – | 0.20 | – | – |
| COc1ccc2c(c1)OC[C@@H](Cc1ccc(OC)c(OC)c1)[C@H]2O | – | 9.9 | -0.10 | -6.9 | – | – | – | – |
| O=C(/C=C/c1ccccc1)c1ccc(O)cc1O [2',4'-DIHYDROXYCHALCONE] | 0.09 | 6.05 | – | – | 6.1 | – | – | – |
| CCOc1ccc(C(=O)c2ccc(OC)c(O)c2O)cc1 [2,3-DIHYDROXY-4-METHOXY-4'-ETHOXYBENZOPHENONE] | -0.12 | 39 | – | – | -8.6 | – | – | – |
| COC1=CC(=O)C=C(OC)C1=O [2,6-DIMETHOXYQUINONE] | – | -5.86 | -0.06 | -4.3 | – | – | – | – |
| COC1=CC(=O)C(C(=O)c2ccccc2)=CC1=O [2-BENZOYL-5-METHOXYBENZOQUINONE] | -0.59 | 16.2 | – | – | -50.7 | – | – | – |
| COc1ccc(C(=O)O)c(O)c1OC [2-HYDROXY-3,4-DIMETHOXYBENZOIC ACID] | 0.16 | 7.69 | – | – | 10.5 | – | – | – |
| COC1(C)CCC2OC2(C)CCC2C1CC2(C)C (stereo not drawn) [2-METHOXY-5 (6)EPOXY-TETRAHYDROCARYOPHYLLENE] | -0.15 | -24.7 | – | – | -11.1 | – | – | – |
| Cc1[nH]c2ccccc2c1CN(C)C [2-METHYL GRAMINE] | -0.11 | 0.92 | – | – | -7.5 | – | – | – |
| C=C[C@@H](C1=CC(=O)C(OC)=C(OC)C1=O)c1ccccc1 [3,4-DIMETHOXYDALBERGIONE] | 0.06 | 11.6 | – | – | 3.8 | – | – | – |
| CC1(C)CC2C1CCC1(C)OC2(C)CCC1O (stereo not drawn) [3,7-EPOXYCARYOPHYLLAN-6-OL] | 0.11 | 12.9 | – | – | 7.2 | – | – | – |
| COC(=O)C[C@H]1C(C)(C)[C@@H](O)[C@@H]2CC3=C4CC(O)O[C@@H](c5ccoc5)[C@]4(C)CCC3[C@@]1(C)C2=O (stereo partly drawn) [3,16-DIDEOXYMEXICANOLIDE-3beta-DIOL] | -0.18 | 87.5 | – | – | -13.4 | – | 52 | – |
| O=C(/C=C/c1ccccc1)c1ccc(O)cc1 [4'-HYDROXYCHALCONE] | 0.33 | 9.45 | – | – | 20.5 | – | – | – |
| COc1ccc(C(=O)/C=C/c2ccccc2)cc1 [4'-METHOXYCHALCONE] | – | 20 | -0.16 | – | -12 | – | – | – |
| COc1ccc(-c2cc(=O)c3ccccc3o2)cc1 [4'-METHOXYFLAVONE] | – | 44.4 | -0.09 | – | -6.3 | – | – | – |
| CC(=O)Oc1ccc(O)cc1 [4-ACETOXYPHENOL] | 0.21 | -14.1 | – | – | 13.4 | – | – | – |
| C=CC(C1=CC(=O)C(OC)=CC1=O)c1ccccc1 (stereo not drawn) [4-METHOXYDALBERGIONE] | -0.03 | -28.5 | – | – | -2.3 | – | – | – |
| Cc1cc(=O)oc2cc(O)c(O)cc12 [4-METHYLESCULETIN] | – | -3.64 | 0.01 | 0.7 | – | – | – | – |
| Cc1c[nH]cn1 [4-METHYLIMIDAZOLE] | – | -27.8 | 0.18 | 11.5 | – | – | – | – |
| CCCCCCCCCc1ccc(O)cc1 [4-NONYLPHENOL] | – | 83.1 | 0.14 | 9.2 | – | – | -181 | – |
| CC(C)CCC[C@@H](C)[C@H]1CC[C@H]2[C@@H]3CC(=O)[C@H]4C[C@@H](O)CC[C@]4(C)[C@H]3CC[C@]12C [5alpha-CHOLESTAN-3beta-OL-6-ONE] | – | -27.8 | 0.53 | – | – | – | – | 30.6 |
| O=c1cc(-c2ccccc2)oc2ccc(O)cc12 [6-HYDROXYFLAVONE] | 0.08 | 40 | – | – | 5.6 | – | – | – |
| O=c1cc(-c2ccccc2)oc2c(O)c(O)ccc12 [7,8-DIHYDROXYFLAVONE] | – | 49.3 | 0.49 | 28.8 | – | – | – | – |
| O=c1cc(-c2ccccc2)oc2cc(O)ccc12 [7-HYDROXYFLAVONE] | – | 9.24 | 0.17 | 10.8 | – | – | – | – |
| COc1ccc2c(=O)ccoc2c1 [7-METHOXYCHROMONE] | -0.34 | -17.1 | – | – | -26.1 | – | – | – |
| CC(=O)O[C@H]1CC[C@@]2(C)C(=CC(=O)[C@H]3[C@@H]4CC[C@H]([C@H](C)CCCC(C)C)[C@@]4(C)CC[C@@H]32)C1 [7-OXOCHOLESTERYL ACETATE] | -0.20 | -24.9 | – | – | -15.2 | – | – | – |
| CC1(C)C(=O)[C@@H]2C[C@@]3(O)C4=CC(=O)O[C@@H](c5ccoc5)[C@]4(C)CC[C@@H]3[C@@](C)(C2=O)[C@H]1CC(=O)O [8-HYDROX[…]] | – | -11 | 1.43 | 63 | – | – | – | – |

Second part, led by results:

| Hs18S ΔCT ([2]; human, 41 h, 10 μM) | Compound | inhibition at 10 µM [1] [%] | Hs18S ΔCT [2, 4] | cytotoxicity at 10 µM [3] [%] | cytotoxicity at 41 h, 10 µM ([3]; human) [%] | Hs18S ΔCT [2] | inhibition at 3.3 µM [1] [%] | cytotoxicity at 41 h, 10 µM [3] [%] |
| --- | --- | --- | --- | --- | --- | --- | --- | --- |
| -0.17 | C=CC(C)(O)CCC=C(C)CCC=C(C)C (mixture of isomers) [NEROLIDOL] | -35.5 | – | – | -12.9 | – | – | – |
| -0.10 | CCCCCCCCCCCCCCCC(=O)OCC(O)CO (stereo not drawn) [1-MONOPALMITIN] | 14.2 | – | – | -7.1 | – | – | – |
| 0.03 | O=C(/C=C/c1ccccc1)c1ccc(O[C@@H]2O[C@H](CO)[C@@H](O)[C@H](O)[C@H]2O)cc1O [2',4'-DIHYDROXYCHALCONE 4'-GLUCOSIDE] | -19.5 | – | – | 1.9 | – | – | – |
| 0.18 | COc1ccc(-c2coc3cc(O)ccc3c2=O)c(OC)c1 [2'-METHOXYFORMONETIN] | 12.9 | – | – | 11.5 | – | – | – |
| 0.22 | CCOc1ccc(C(=O)c2ccc(O)c(O)c2O)cc1 [2,3,4-TRIHYDROXY-4'-ETHOXYBENZOPHENONE] | -43.7 | – | – | 14.4 | – | – | – |
| 0.06 | COc1cc(O)c(C)c(O)c1 [2,6-DIHYDROXY-4-METHOXYTOLUENE] | 19 | – | – | 4.4 | – | – | – |
| -0.43 | CC(=O)c1ccc[nH]1 [2-ACETYLPYRROLE] | 22.6 | – | – | -34.6 | – | – | – |
| -0.15 | CC1(C)CC2C1CCC1(C)OC1CCC2(C)O (stereo not drawn) [2-HYDROXY-5 (6)EPOXY-TETRAHYDROCARYOPHYLLENE] | 46.2 | – | – | -10.9 | – | – | – |
| -0.20 | COc1c(O)cccc1O [2-METHOXYRESORCINOL] | 20.3 | – | – | -15 | – | – | – |
| -0.21 | COc1ccc2c(=O)c(OC)c(-c3ccccc3)oc2c1 [3,7-DIMETHOXYFLAVONE] | 49.7 | – | – | -15.4 | – | – | – |
| 0.27 | CC12CCC3C(CC3(C)C)C(C)(CCC1=O)O2 (stereo not drawn) [3,7-EPOXYCARYOPHYLLAN-6-ONE] | 13.1 | – | – | 17 | – | – | – |
| 0.42 | C=C1C(N)CC2CC1C2(C)C (stereo not drawn) [3-AMINO-beta-PINENE] | 19.2 | – | – | 25.3 | – | – | – |
| 0.05 | COc1ccc2c(c1)OC[C@@H](Cc1ccc(OC)c(OC)c1)[C@@H]2O [3-DESHYDROXYSAPPANOL TRIMETHYL ETHER] | 7.69 | – | – | 3.2 | – | – | – |
| -0.21 | O=c1oc2ccccc2cc1O [3-HYDROXYCOUMARIN] | -39.6 | – | – | -15.7 | – | – | – |
| -0.04 | O=c1c(O)c(-c2ccccc2)oc2ccccc12 [3-HYDROXYFLAVONE] | 92.4 | – | – | -2.7 | – | -28 | – |
| 0.05 | COc1cccc(O)c1O [3-METHOXYCATECHOL] | -66.7 | – | – | 3.2 | – | – | – |
| 0.05 | Cc1cc(O)c(C)c(O)c1C(=O)O [3-METHYLORSELLINIC ACID] | 30.8 | – | – | 3.6 | – | – | – |
| 0.24 | CC1(C)CC23C(=O)CCC(O)C2(C)CCC13 (stereo not drawn) [3-NOR-3-OXOPANASINSAN-6-OL] | 23.9 | – | – | 15.3 | – | – | – |
| 0.02 | CC1/C(=N/O)C[C@@H]2C[C@H]1C2(C)C (stereo partly drawn) [3-PINANONE OXIME] | -6.18 | – | – | 1.5 | – | – | – |
| -0.06 | C[C@]12CC[C@@H](O)C[C@H]1CCc1ccccc12 [3alpha-HYDROXY-4,4-BISNOR-8,11,13-PODOCARPATRIENE] | -50.2 | – | – | -4.1 | – | – | – |
| -0.01 | C=CC(C1=CC(=O)C(OC)=CC1=O)c1ccc(OC)cc1 (stereo not drawn) [4,4'-DIMETHOXYDALBERGIONE] | -34.2 | – | – | -0.7 | – | – | – |
| -0.22 | Cc1cc(=O)oc2c(O)c(O)ccc12 [4-METHYLDAPHNETIN] | -23.7 | – | – | -16.6 | – | – | – |
| -0.08 | COc1cccc(-c2cc(=O)c3cc(OC)ccc3o2)c1 [6,3'-DIMETHOXYFLAVONE] | 1.27 | – | – | -5.6 | – | – | – |

From publication PMC6736568, “Discovery of Novel Anti-cryptosporidial Activities From Natural Products by in vitro High-Throughput Phenotypic Screening” (Frontiers in Microbiology, 2019)
